From patent publication US5128493A, “Platinum complexes” (Nippon Kayaku Kabushiki Kaisha, priority 1987, dated 1992)

What was measured:
Mouse Leukemia L1210 = assay: Antitumor activity against mouse leukemia L1210 in vivo; design: species or system mouse (female CDF1); details: i.p. once a day for 5 consecutive days; for Opt. dose: L1210, daily amount giving the max (T/C); for max (T/C): L1210, mean survival time, at optimum dose; for LD50: L1210-bearing female CDF1 mice
Experimental: Test of Antitumor Activity Against Mouse Leukemia L1210 in vivo
1×10^5 mouse leukemia L1210 cells were inoculated into the abdominal cavities of 6-week-old female CDF1 mice. From the next day, a compound was administered to them intraperitoneally once a day for 5 consecutive days. Mice of a compound-non-treated group (control group) were administered with physiological saline solution in the same manner. The mean survival time of the compound-treated group and the control group were measured and T/C was calculated from the equation (1): [formula]
In Table 4, max (T/C) means the maximum value of T/C and optimum dose (Opt. dose) means a daily administration amount giving the max (T/C), namely, an optimum daily administration amount.

[1] = cis-Platin, prior art description; cited from earlier work
[2] = system: Mouse leukemia L1210 cells; assay: Growth inhibitory activity against cultured tumor cells, L1210; type: cell-based; details: Tumor cell L1210; RPMI 1640, 10% fetal calf serum
Experimental: (§1) Test of Growth Inhibitory Activity Against Various Kinds of Cultured Tumor Cells
(§2) Mouse leukemia L1210 cells were cultured in a RPMI 1640 medium containing 10% of fetal calf serum and mouse Lewis lung carcinoma (LL) cells were cultured in a RPMI 1640 medium containing 10% fetal calf serum and 100 μg/ml of Kanamycin.

[3] = system: mouse Lewis lung carcinoma (LL) cells; assay: Growth inhibitory activity against cultured tumor cells, LL; type: cell-based; details: Tumor cell LL; RPMI 1640, 10% fetal calf serum, 100 μg/ml Kanamycin
Experimental: as §1, §2

[4] = mouse, in vivo, ip
Text: A compound was singly administered to 6-week-old male CDF1 mice intraperitoneally.

[5] = system: cis-Platin resistant mouse leukemia L1210 cells; assay: Growth inhibitory activity against cis-Platin resistant tumor cells, L1210; type: cell-based; details: Tumor cell L1210; ratio of IC50 for cis-Platin resistant cells to IC50 for non-resistant cells
Text: (§3) 1×10^5 mouse leukemia L1210 cells or 1×10^5 mouse leukemia P388 cells were inoculated into the abdominal cavities of CDF1 female mice. […] After 5 days, their tumor cells were inoculated to the abdominal cavities of other CDF1 female mice, and the same treatment was applied.

[6] = system: cis-Platin resistant mouse leukemia P388 cells; assay: Growth inhibitory activity against cis-Platin resistant tumor cells, P388; type: cell-based; details: Tumor cell P388; ratio of IC50 for cis-Platin resistant cells to IC50 for non-resistant cells
Text: as §3

[7] = system: Mouse Lewis Lung Carcinoma; assay: Antitumor activity against mouse Lewis lung carcinoma in vivo; design: species or system mouse (male BDF1); details: i.p. once a day for 5 consecutive days; for max (T/C) / Opt. dose: Lewis lung carcinoma; for max (T/C): median survival time, at optimum dose; for Opt. dose: daily amount giving the max (T/C)
Experimental: Test of Antitumor Activity Against Mouse Lewis Lung Carcinoma
1×10^6 mouse Lewis lung carcinoma cells were inoculated into the abdominal cavities of 6-week-old male BDF1 mice. From the next day, a compound was administered to them intraperitoneally once a day for 5 consecutive days. Mice of compound-non-treated group (control group) were administered with physiological saline solution in the same manner. From the median survival time of the compoundtreated group and the control group, T/C was calculated according to the following equation (2): [formula]
In Table 5, max (T/C), and Opt. dose and LD50 mean the same ones in Table 4, respectively.

Compound | Solubility in water | Opt. dose (Mouse Leukemia L1210) | dissolving in water (in words) [1] | IC50 [2] | IC50 [3] | max (T/C) (Mouse Leukemia L1210) | LD50 (Mouse Leukemia L1210) | Solubility in physiological saline solution (physiological saline) | Body weight ratio [4] | IC50 R/IC50 [5] | IC50 R/IC50 [6] | max (T/C) [7] | Opt. dose [7] | LD50 ([7]; Lewis lung carcinoma-bearing male BDF1 mice)
cis-Diethylmalonato-2,3-dimethyl-1,4-butanediamine Platinum [Compound No. 8] | > 15 mg/mL | – | – | – | – | – | – | – | – | – | – | – | – | –
N.N.[Cl][Pt][Cl] [cis-Platin, cis-dichlorodiammineplatinum, reference compound] | – | 4 mg/kg | dissolving in water slowly | – | – | – | – | – | – | – | – | – | – | –
cis-Dichloro-2,3-dimethyl-1,4-butanediamine Platinum [Compound No. 1] | – | 2.0 mg/kg | – | 0.04 µg/mL | 0.43 µg/mL | 323 | 3.0 mg/kg | > 2 mg/ml | 0.79 | – | – | – | – | –
cis-Dimethylmalonato-2,3-dimethyl-1,4-butanediamine Platinum [Compound No. 5] | > 20 mg/mL | 32.0 mg/kg | – | 0.40 µg/mL | 1.06 µg/mL | 245 | – | – | 0.89 | 1.4 | 6.2 | – | – | –
cis-Malonato-2,3-dimethyl-1,4-butanediamine Platinum [Compound No. 3] | > 30 mg/mL | 16.0 mg/kg | – | 0.27 µg/mL | 0.95 µg/mL | 400 | – | – | 1.00 | 1.3 | 4.6 | 234 | 32.0 mg/kg | –
cis-4-Oxacyclohexane-1,1-dicarboxylato-2,3-dimethyl-1,4-butanediamine Platinum [Compound No. 6] | > 20 mg/mL | – | – | 0.11 µg/mL | 1.06 µg/mL | – | – | – | – | – | – | – | – | –
cis-Ethylmalonato-2,3-dimethyl-1,4-butanediamine Platinum [Compound No. 7] | > 20 mg/mL | – | – | – | – | – | – | – | – | – | – | – | – | –
cis-Oxalato-2,3-dimethyl-1,4-butanediamine Platinum [Compound No. 2] | > 3 mg/mL | 4.0 mg/kg | – | 0.11 µg/mL | 0.65 µg/mL | 296 | 7.2 mg/kg | – | 0.77 | – | – | – | – | –
cis-Cyclobutane-1,1-dicarboxylato-2,3-dimethyl-1,4-butanediamine Platinum [Compound No. 4] | – | 32.0 mg/kg | – | 1.01 µg/mL | 2.10 µg/mL | 328 | – | – | – | – | – | 144 | 32.0 mg/kg | 48.0 mg/kg
